Source: patent publication US12060588B2, “Methods of editing DNA methylation” (Whitehead Institute for Biomedical Research, priority 2016, dated 2024)

Tested on: RHOXF2 promoter region
Assay: Comparison of dCas9- and TALE-based methylation editing, RHOXF2 promoter, bisulfite sequencing in HEK293T cells
Type: cell-based
Protocol: FIGS. 10A-10G depict comparison of TALE- and dCas9-based methylation editing. […] Transfection positive cell populations (cherry+) or (GFP+) were FACS sorted 48-hour post-transfection. Methylation levels of each individual CpG in the p16 promoter region were analyzed by bisulfite sequencing. Shown is the mean percentage±SD of two biological replicates with a total of 34 single colonies sequenced for dCas9-Dnmt3a and 31 single colonies sequenced for TALE-Dnmt3a. Red arrow indicates the position of p16 target gRNA, and purple arrow indicates the binding site for TALE-Dnmt3a. FIG. 10B depicts HEK293T cells were co-transfected with dCas9-Tet1 and one RHOXF2 target gRNA (with puro cassette) or TALE-Tet1 with a puro cassette expressing plasmid. Puromycin (2 ug/ml) was added to the culture medium to select for transfection positive cells. Cells were harvested after 2-day selection for analysis of methylation levels for individual CpGs in the RHOXF2 promoter region by bisulfite sequencing. Shown is the mean percentage±SD of two biological replicates with a total of 34 single colonies sequenced for dCas9-Tet1 and 38 single colonies sequenced for TALE-Tet1. Red arrow indicates the position of RHOXF2 target gRNA, and purple arrow indicates the binding site for […]. […]

dCas9-Tet1: catalytically inactive Cas9 (dCas9) fused through NLS to the Tet1 catalytic domain, SEQ ID NO: 159; lentivirally expressed with gRNAs
region (effective range) of methylation decrease in the RHOXF2 promoter (CpGs with change of methylation greater than 10%): 150 bp | average decrease of methylation in the RHOXF2 promoter (one single gRNA or TALE at the same site, 2-day puromycin selection): 28%
